B3: Tryparedoxin (protein)
chain: MSGLAKYLPGATNLLSKSGEVSLGSLVGKTVFLYFSASWCPPCRGFTPVLAEFYEKHHVAKNFEVVLISWDENESDFHDYYGKMPWLALPFDQRSTVSELGKTFGVESIPTLITINADTGAIIGTQARTRVIEDPDGANFPWPN

For series [1], the target named is T1, Tpx WT (Trypanosoma brucei brucei, UniProt O77404).
T1 sequence (O77404 1-144): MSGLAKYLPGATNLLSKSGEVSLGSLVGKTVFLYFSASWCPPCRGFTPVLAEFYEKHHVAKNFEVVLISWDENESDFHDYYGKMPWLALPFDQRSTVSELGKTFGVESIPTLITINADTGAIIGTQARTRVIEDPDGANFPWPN
Kind of series: biochemical. The following applies: for rD,LILBID @ 1100 µm / rD,solution: Tpx WT with or without molecular glue; for rD,LILBID @ 1100 µm: from linear fits of dissociation plots; for rD,solution: from rD,LILBID with calibration factor f1100. Format: binding.

A further series deals with Tpx W39A (Trypanosoma brucei brucei, UniProt O77404, W39A). The series is described as follows: biochemical. Format: binding.
Tpx W39A, sequence (O77404 whole entry W39A): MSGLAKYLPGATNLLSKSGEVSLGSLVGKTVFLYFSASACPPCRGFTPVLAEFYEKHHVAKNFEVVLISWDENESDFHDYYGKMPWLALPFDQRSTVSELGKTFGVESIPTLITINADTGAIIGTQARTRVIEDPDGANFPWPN
The target in the next series is Tpx K102A (Trypanosoma brucei brucei, UniProt O77404, K102A). The series is described as follows: biochemical. In kind it is binding.
Tpx K102A, sequence (O77404 whole entry K102A): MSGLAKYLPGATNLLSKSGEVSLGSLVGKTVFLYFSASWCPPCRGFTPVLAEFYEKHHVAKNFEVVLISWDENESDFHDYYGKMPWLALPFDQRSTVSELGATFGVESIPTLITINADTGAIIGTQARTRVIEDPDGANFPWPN
Series [2] addresses T2, Tpx K102E (Trypanosoma brucei brucei, UniProt O77404, K102E). Kind of series: biochemical. In kind it is binding.
Series [3] concerns the target T1, Tpx WT. Also on record: method as in Schwegler et al., bioRxiv 2025. The following applies: Tpx WT with molecular glue; previous dilution ITC; ref Schwegler et al., bioRxiv 2025; read-out: K D,ITC of Tpx homodimer; cited from earlier work.
The target in series [4] is T2, Tpx K102E. The arrangement: method as in Schwegler et al., bioRxiv 2025. As to conditions: Tpx K102E with molecular glue; previous dilution ITC; ref Schwegler et al., bioRxiv 2025; read-out: K D,ITC of Tpx homodimer; cited from earlier work.
Another series deals with BSA (Bos taurus) (UniProt P02769). As to conditions: cited from earlier work.
The series “Tryparedoxin” addresses B3. The series is described as follows: qLILBID-MS.
The series “qLILBID-MS” concerns the molecule itself. The series is described as follows: qLILBID-MS.

“And” between values parts separate entries of the source, which are not always exact repeats. Equal entries are not always repeated. Where two headings read alike, the source gives them in different places.

T2 sequence (O77404 whole entry K102E): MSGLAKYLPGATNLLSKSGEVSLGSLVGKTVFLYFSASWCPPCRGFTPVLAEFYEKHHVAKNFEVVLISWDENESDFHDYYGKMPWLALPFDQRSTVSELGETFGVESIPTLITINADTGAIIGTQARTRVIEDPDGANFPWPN

Regarding `O=c1[nH]c(CCl)nc2scc(-c3ccc(F)cc3)c12` [para-CFT, 2-(chloromethyl)-5-(4-fluorophenyl)thieno[2,3-d]pyrimidin-4(3H)-one], the Kd on Tpx WT [1] was 5 ± 4 µM; on Tpx W39A it was 300 ± 110 µM; at Tpx K102A (K D,LILBID of Tpx homodimer, Tpx K102A with para-CFT or none, ew 1100 μm, triplicate), 37 µM and 36 µM; at Tpx K102E [2] it was 70 ± 16 µM; at Tpx WT [3] it was 5.3 ± 1.9 µM; on Tpx K102E [4], 83 ± 32 µM. Also, the “rD,LILBID @ 1100 µm” value at Tpx WT [1] worked out at 0.798 ± 0.048; on Tpx W39A (Tpx W39A with or without para-CFT), 0.980 ± 0.006; on Tpx K102A (Tpx K102A with or without para-CFT) it was 0.914 ± 0.027; on Tpx K102E [2] (Tpx K102E with or without para-CFT) it was 0.942 ± 0.008. Further, the “rD,solution” value at Tpx WT [1] was 0.398 ± 0.099; on Tpx W39A (Tpx W39A with or without para-CFT, from rD,LILBID with f1100), 0.921 ± 0.023; at Tpx K102A (Tpx K102A with or without para-CFT, from rD,LILBID with f1100) it was 0.692 ± 0.084; at Tpx K102E [2] (Tpx K102E with or without para-CFT, from rD,LILBID with f1100), 0.782 ± 0.029.
Take `O=c1[nH]c(CCl)nc2scc(-c3ccc(C(F)(F)F)cc3)c12` [CtFT]: on Tpx WT [1], the Kd worked out at 360 ± 110 µM, the “rD,LILBID @ 1100 µm” value is 0.983 ± 0.004 and the “rD,solution” value was 0.932 ± 0.017. At Tpx WT [3], the Kd was 410 ± 56 µM.
With BSA (from UniProt P02769), the Kd in the series with BSA (Bos taurus) is 10 µM.
On to `O=c1[nH]c(CCl)nc2scc(-c3cccc(F)c3)c12` [meta-CFT], for which, at Tpx WT [1], the Kd was 6 ± 5 µM, the “rD,LILBID @ 1100 µm” value was 0.809 ± 0.058 and the “rD,solution” value is 0.420 ± 0.124. Besides, the Kd at Tpx WT [3] was 3.7 ± 1.5 µM.
Consider `O=c1[nH]c(CCl)nc2scc(-c3ccccc3)c12` [CPT], for which, on Tpx WT [1], the Kd came to 16 ± 9 µM, the “rD,LILBID @ 1100 µm” value came out at 0.871 ± 0.033 and the “rD,solution” value is 0.568 ± 0.088. At Tpx WT [3], the Kd is 6 ± 2.2 µM.
Take `O=c1[nH]c(CCl)nc2scc(-c3ccccc3F)c12` [ortho-CFT]: at Tpx WT [1], the “rD,LILBID @ 1100 µm” value is reported as 0.897 ± 0.024 and the “rD,solution” value was 0.642 ± 0.072. For the same molecule, on Tpx WT [3], the Kd is 32 ± 7 µM.

B1: Tryparedoxin (protein)
chain: MSGLAKYLPGATNLLSKSGEVSLGSLVGKTVFLYFSASWCPPCRGFTPVLAEFYEKHHVAKNFEVVLISWDENESDFHDYYGKMPWLALPFDQRSTVSELGKTFGVESIPTLITINADTGAIIGTQARTRVIEDPDGANFPWPN
modifications: ortho-CFT covalently bound to C40
Consider B1, for which, in the series with Tryparedoxin, the Kd amounted to 26 µM.

B2: Tryparedoxin (protein)
chain: MSGLAKYLPGATNLLSKSGEVSLGSLVGKTVFLYFSASWCPPCRGFTPVLAEFYEKHHVAKNFEVVLISWDENESDFHDYYGKMPWLALPFDQRSTVSELGKTFGVESIPTLITINADTGAIIGTQARTRVIEDPDGANFPWPN
modifications: CPT covalently bound to C40
On to B2, for which the Kd with Tryparedoxin was 16 µM.
Molecule B3 showed a Kd in the series “qLILBID-MS” greater than 500 µM.

B4: Tryparedoxin (protein)
chain: MSGLAKYLPGATNLLSKSGEVSLGSLVGKTVFLYFSASWCPPCRGFTPVLAEFYEKHHVAKNFEVVLISWDENESDFHDYYGKMPWLALPFDQRSTVSELGKTFGVESIPTLITINADTGAIIGTQARTRVIEDPDGANFPWPN
modifications: meta-CFT covalently bound to C40
B4: the Kd in the series with Tryparedoxin came to 6 µM.

B5: Tryparedoxin (protein)
chain: MSGLAKYLPGATNLLSKSGEVSLGSLVGKTVFLYFSASWCPPCRGFTPVLAEFYEKHHVAKNFEVVLISWDENESDFHDYYGKMPWLALPFDQRSTVSELGKTFGVESIPTLITINADTGAIIGTQARTRVIEDPDGANFPWPN
modifications: CtFT covalently bound to C40
In the case of B5, the Kd with Tryparedoxin turned out to be 360 µM.

B6: Tryparedoxin (protein)
chain: MSGLAKYLPGATNLLSKSGEVSLGSLVGKTVFLYFSASWCPPCRGFTPVLAEFYEKHHVAKNFEVVLISWDENESDFHDYYGKMPWLALPFDQRSTVSELGKTFGVESIPTLITINADTGAIIGTQARTRVIEDPDGANFPWPN
modifications: para-CFT covalently bound to C40
B6 showed a Kd with Tryparedoxin of 5 µM.

Values taken from article PMC13088243, “Quantifying Protein Homodimer Affinities and the Effect of Molecular Glues and Interface Residues Using Native Mass Spectrometry” (Journal of the American Chemical Society, 2026).
